Consider three compounds from patent publication US8134012B2 (priority 2005, dated 2012).

Where two headings read alike, the source gives them in different places.

Assay [1] has as its system Pyricularia oryzae. The format is cell-based.
The subject of assay [2] is Alternaria mali. The settings on record: active compound concentration 1 ppm; 3 days incubation in PDB; single active compound.

For `COP(=S)(OC)Oc1c(Cl)cc(C)cc1Cl` [(2) tolclofos-methyl, tolclofos-methyl], the “Efficacy in % found” value in assay [1] is listed as 13%. For the compound `Cc1nn(C)c(F)c1C(=O)Nc1ccccc1C(C)CC(C)C` (stereo not shown) [(1-2), N-[2-(1,3-dimethylbutyl)phenyl]-5-fluoro-1,3-dimethyl-1H-pyrazole-4-carboxamide], the “Efficacy in % found” value came to 20% in assay [1] (active compound concentration 0.03 ppm, 4 days incubation in PDB, single active compound) and 83% in assay [2]. Regarding `CC(C)Oc1cccc(NC(=O)c2ccccc2C(F)(F)F)c1` [(3) flutolanil, flutolanil], the “Efficacy in % found” value in assay [2] is listed as 12%.
